# Measurements published in the C3SDB collision cross section collection.
# Columns and labels:
# [1] = instrument: DT, stepped-field
# [2] = instrument: DT, stepped-field; remark: listed apart in the source
# [3] = instrument: DT, single field, calibrated with Agilent tune mix (Agilent)
SMILES,collision cross section (N2) ([1]; [M+H]+),collision cross section (N2) ([2]; [M+H]+),collision cross section (N2) ([3]; [M+H]+),collision cross section (N2) ([1]; [M+Na]+),collision cross section (N2) ([2]; [M-H]-),collision cross section (N2) ([3]; [M-H]-),collision cross section (N2) ([2]; [M+2H]2+),collision cross section (N2) ([2]; [M+3H]3+)
CSCC[C@H](N)C(=O)O [L-Methionine],133.65 Å²,134.08 Å²,–,–,–,–,–,–
NC(N)=NCCC[C@H](N)C(=O)O [L-Arginine],–,136.84 Å²,136.4 Å²,147.8 Å²,138.03 Å²,–,–,–
CC[C@H](C)[C@H](N)C(=O)O [L-Isoleucine],136.97 Å²,133.81 Å²,–,–,131.29 Å²,–,–,–
CC[C@H](C)[C@H](NC(=O)[C@H](Cc1ccc(O)cc1)NC(=O)[C@@H](NC(=O)[C@H](CCCN=C(N)N)NC(=O)[C@@H](N)CC(=O)O)C(C)C)C(=O)N[C@@H](Cc1cnc[nH]1)C(=O)N1CCC[C@H]1C(=O)N[C@@H](Cc1ccccc1)C(=O)O [Angiotensin II],–,314.38 Å²,–,–,–,–,353.79 Å²,436.24 Å²

# Next, values leading:
collision cross section (N2) ([1]; [M+H]+),collision cross section (N2) ([2]; [M+H]+),collision cross section (N2) ([3]; [M+H]+),collision cross section (N2) ([1]; [M+Na]+),collision cross section (N2) ([2]; [M-H]-),collision cross section (N2) ([3]; [M-H]-),collision cross section (N2) ([2]; [M+2H]2+),collision cross section (N2) ([2]; [M+3H]3+),SMILES
–,–,–,–,177.66 Å²,174.42 Å²,–,–,CCCCCCCCCCCCCCCCCC(=O)O [Stearic acid]
–,146.45 Å²,145.7 Å²,143.97 Å²,145.59 Å²,–,–,–,N[C@@H](Cc1ccc(O)cc1)C(=O)O [L-Tyrosine]
–,141.28 Å²,140.3 Å²,138.91 Å²,141.29 Å²,–,–,–,N[C@@H](Cc1ccccc1)C(=O)O [L-Phenylalanine]
–,–,–,–,176.46 Å²,173.88 Å²,–,–,CCCCCCCC/C=C\CCCCCCCC(=O)O [Oleic acid]
